Measured values reported in patent EP0584797A2, “Novel cephalosporin compounds and processes for the preparation thereof” (LUCKY LTD., priority 1992, dated 1994).
Converted amounts (≈) assume the structure as drawn.

Key:
Assay in all cases: minimal inhibitory concentration, two-fold agar dilution
Type in all cases: cell-based
[1] = system: Acinetobacter calcoaceticus ATCC 15437; conditions: ATCC15437, Muller-Hinton agar, 37°C, 20 hours, read-out: MIC values against the standard strains
Summary of the method: (§1)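 Compounds were serially diluted two-fold into Mueller-Hinton agar, and each plate was spot-inoculated with the test strain at 10⁷ CFU per ml. Plates were incubated at 37°C for 20 hours before MIC values were read.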

[2] = system: Bacillus cereus ATCC 11778; conditions: ATCC11778, Muller-Hinton agar, 37°C, 20 hours, read-out: MIC values against the standard strains
Summary of the method: as §1

[3] = system: Bacillus megaterium ATCC 9885; conditions: Priestia megaterium, ATCC9885; Muller-Hinton agar; 37°C; 20 hours; read-out: MIC values against the standard strains
Summary of the method: as §1

[4] = system: Citrobacter freundii ATCC 8090; conditions: ATCC8090, Muller-Hinton agar, 37°C, 20 hours, read-out: MIC values against the standard strains
Summary of the method: as §1

[5] = system: Enterobacter aerogenes ATCC 29751; conditions: Klebsiella aerogenes, ATCC29751; Muller-Hinton agar; 37°C; 20 hours; read-out: MIC values against the standard strains
Summary of the method: as §1

[6] = system: Enterobacter cloacae ATCC 27508; conditions: ATCC27508, Muller-Hinton agar, 37°C, 20 hours, read-out: MIC values against the standard strains
Summary of the method: as §1

[7] = system: Escherichia coli ATCC 10536; conditions: ATCC10536, Muller-Hinton agar, 37°C, 20 hours, read-out: MIC values against the standard strains
Summary of the method: as §1

[8] = system: Escherichia coli ATCC 25922; conditions: ATCC25922, Muller-Hinton agar, 37°C, 20 hours, read-out: MIC values against the standard strains
Summary of the method: as §1

[9] = system: Klebsiella pneumoniae ATCC 10031; conditions: ATCC10031, Muller-Hinton agar, 37°C, 20 hours, read-out: MIC values against the standard strains
Summary of the method: as §1

[10] = system: Micrococcus luteus ATCC 9341; conditions: ATCC9341, Muller-Hinton agar, 37°C, 20 hours, read-out: MIC values against the standard strains
Summary of the method: as §1

[11] = system: Morganella morganii ATCC 8076h; conditions: ATCC8076H, Muller-Hinton agar, 37°C, 20 hours, read-out: MIC values against the standard strains
Summary of the method: as §1

[12] = system: Proteus mirabilis ATCC 25933; conditions: ATCC25933, Muller-Hinton agar, 37°C, 20 hours, read-out: MIC values against the standard strains
Summary of the method: as §1

[13] = system: Proteus vulgaris ATCC 6059; conditions: ATCC6059, Muller-Hinton agar, 37°C, 20 hours, read-out: MIC values against the standard strains
Summary of the method: as §1

[14] = system: Providencia rettgeri ATCC 9250; conditions: ATCC9250, Muller-Hinton agar, 37°C, 20 hours, read-out: MIC values against the standard strains
Summary of the method: as §1

[15] = system: Pseudomonas aeruginosa ATCC 10145; conditions: ATCC10145, Muller-Hinton agar, 37°C, 20 hours, read-out: MIC values against the standard strains
Summary of the method: as §1

[16] = system: Pseudomonas aeruginosa ATCC 25619; conditions: ATCC25619, Muller-Hinton agar, 37°C, 20 hours, read-out: MIC values against the standard strains
Summary of the method: as §1

[17] = system: Pseudomonas aeruginosa ATCC 27853; conditions: ATCC27853, Muller-Hinton agar, 37°C, 20 hours, read-out: MIC values against the standard strains
Summary of the method: as §1

[18] = system: Salmonella typhimurium ATCC 14028; conditions: Salmonella enterica; Muller-Hinton agar; 37°C; 20 hours; read-out: MIC values against the standard strains
Summary of the method: as §1

[19] = system: Serratia marcescens ATCC 27117; conditions: ATCC27117, Muller-Hinton agar, 37°C, 20 hours, read-out: MIC values against the standard strains
Summary of the method: as §1

[20] = system: Shigella flexneri ATCC 11836; conditions: ATCC11836, Muller-Hinton agar, 37°C, 20 hours, read-out: MIC values against the standard strains
Summary of the method: as §1

[21] = system: Shigella sonnei ATCC 11060; conditions: ATCC11060, Muller-Hinton agar, 37°C, 20 hours, read-out: MIC values against the standard strains
Summary of the method: as §1

[22] = system: Staphylococcus aureus ATCC 10537; conditions: ATCC10537, Muller-Hinton agar, 37°C, 20 hours, read-out: MIC values against the standard strains
Summary of the method: as §1

[23] = system: Staphylococcus aureus ATCC 6538p; conditions: ATCC6538P, Muller-Hinton agar, 37°C, 20 hours, read-out: MIC values against the standard strains
Summary of the method: as §1

[24] = system: Staphylococcus epidermidis ATCC 12228; conditions: ATCC12228, Muller-Hinton agar, 37°C, 20 hours, read-out: MIC values against the standard strains
Summary of the method: as §1

[25] = system: Streptococcus faecalis ATCC 29212; conditions: Enterococcus faecalis, ATCC29212; Muller-Hinton agar; 37°C; 20 hours; read-out: MIC values against the standard strains
Summary of the method: as §1

| SMILES | MIC [1] | MIC [2] | MIC [3] | MIC [4] | MIC [5] | MIC [6] | MIC [7] | MIC [8] | MIC [9] | MIC [10] | MIC [11] | MIC [12] | MIC [13] | MIC [14] | MIC [15] | MIC [16] | MIC [17] | MIC [18] | MIC [19] | MIC [20] | other results |
| --- | --- | --- | --- | --- | --- | --- | --- | --- | --- | --- | --- | --- | --- | --- | --- | --- | --- | --- | --- | --- | --- |
| CCO/N=C(\C(=O)N[C@@H]1C(=O)N2C(C(=O)[O-])=C(CSc3nc(N)c(N)c(N)[n+]3CC)CS[C@H]12)c1csc(N)n1 [Example 13, 7-[(Z)-2-(2-aminothiazol-4-yl)-2-(ethoxyimino)acetamido]-3-(4,5,6-triamino-1-ethylpyrimidinium-2-yl)thiomethyl-3-cephem-4-carboxylate] | 16 µg/mL (≈ 26.9 µM) | 64 µg/mL (≈ 108 µM) | 0.13 µg/mL (≈ 0.219 µM) | 0.5 µg/mL (≈ 0.841 µM) | 2 µg/mL (≈ 3.36 µM) | 0.016 µg/mL (≈ 0.0269 µM) | 0.063 µg/mL (≈ 0.106 µM) | 0.063 µg/mL (≈ 0.106 µM) | 0.13 µg/mL (≈ 0.219 µM) | 0.13 µg/mL (≈ 0.219 µM) | 0.13 µg/mL (≈ 0.219 µM) | 2 µg/mL (≈ 3.36 µM) | 2 µg/mL (≈ 3.36 µM) | 0.13 µg/mL (≈ 0.219 µM) | 64 µg/mL (≈ 108 µM) | 8 µg/mL (≈ 13.5 µM) | 32 µg/mL (≈ 53.8 µM) | 1 µg/mL (≈ 1.68 µM) | 1 µg/mL (≈ 1.68 µM) | 0.5 µg/mL (≈ 0.841 µM) | MIC [21]: 0.5 µg/mL (≈ 0.841 µM); MIC [22]: 0.25 µg/mL (≈ 0.42 µM); MIC [23]: 0.5 µg/mL (≈ 0.841 µM); MIC [24]: 0.13 µg/mL (≈ 0.219 µM); MIC [25]: > 128 µg/mL |
| C[n+]1c(SCC2=C(C(=O)[O-])N3C(=O)[C@@H](NC(=O)/C(=N\OC(C)(C)C(=O)O)c4csc(N)n4)[C@H]3SC2)nc(N)c(N)c1N [Example 1] | 8 µg/mL (≈ 12.5 µM) | 128 µg/mL (≈ 200 µM) | 0.25 µg/mL (≈ 0.391 µM) | 0.13 µg/mL (≈ 0.204 µM) | 2 µg/mL (≈ 3.13 µM) | 0.016 µg/mL (≈ 0.0251 µM) | 0.13 µg/mL (≈ 0.204 µM) | 0.063 µg/mL (≈ 0.0986 µM) | 0.063 µg/mL (≈ 0.0986 µM) | 0.25 µg/mL (≈ 0.391 µM) | ≤ 0.008 µg/mL | 0.063 µg/mL (≈ 0.0986 µM) | 0.063 µg/mL (≈ 0.0986 µM) | ≤ 0.008 µg/mL | 2 µg/mL (≈ 3.13 µM) | 1 µg/mL (≈ 1.57 µM) | 1 µg/mL (≈ 1.57 µM) | 0.25 µg/mL (≈ 0.391 µM) | 0.25 µg/mL (≈ 0.391 µM) | 0.031 µg/mL (≈ 0.0485 µM) | MIC [21]: 0.13 µg/mL (≈ 0.204 µM); MIC [22]: 2 µg/mL (≈ 3.13 µM); MIC [23]: 8 µg/mL (≈ 12.5 µM); MIC [24]: 2 µg/mL (≈ 3.13 µM); MIC [25]: > 128 µg/mL |
| C[n+]1c(SCC2=C(C(=O)[O-])N3C(=O)[C@@H](NC(=O)/C(=N\O)c4csc(N)n4)[C@H]3SC2)nc(N)c(N)c1N [Example 9, 7-[(Z)-2-(2-aminothiazol-4-yl)-2-oxyiminoacetamido]-3-(4,5,6-triamino-1-methylpyrimidinium-2-yl)thiomethyl-3-cephem-4-carboxylate] | 0.13 µg/mL (≈ 0.235 µM) | 16 µg/mL (≈ 29 µM) | 0.063 µg/mL (≈ 0.114 µM) | 0.016 µg/mL (≈ 0.029 µM) | 0.016 µg/mL (≈ 0.029 µM) | ≤ 0.008 µg/mL | 0.031 µg/mL (≈ 0.0561 µM) | 0.031 µg/mL (≈ 0.0561 µM) | 0.031 µg/mL (≈ 0.0561 µM) | 0.031 µg/mL (≈ 0.0561 µM) | ≤ 0.008 µg/mL | 0.031 µg/mL (≈ 0.0561 µM) | 0.063 µg/mL (≈ 0.114 µM) | ≤ 0.008 µg/mL | 128 µg/mL (≈ 232 µM) | 64 µg/mL (≈ 116 µM) | 128 µg/mL (≈ 232 µM) | 0.25 µg/mL (≈ 0.452 µM) | 0.25 µg/mL (≈ 0.452 µM) | 0.063 µg/mL (≈ 0.114 µM) | MIC [21]: 0.25 µg/mL (≈ 0.452 µM); MIC [22]: 0.13 µg/mL (≈ 0.235 µM); MIC [23]: 0.25 µg/mL (≈ 0.452 µM); MIC [24]: 0.063 µg/mL (≈ 0.114 µM); MIC [25]: 2 µg/mL (≈ 3.62 µM) |
